Results as given in the supplement of paper PMC8882468.

system: HCI-019 (organoid from a triple-negative breast cancer xenograft); test: CTG-3D luminescence at 96 h relative to day-0 seeding control (ratio to day 0); higher = more growth / less cytotoxicity; PDxO 3D drug screen, 96 h, CTG-3D normalised to day-0 seeding control.; settings: 12.5 pM; days in culture: 110

| SMILES | CTG-3D luminescence at 96 h |
| --- | --- |
| CC(C)(C(=O)NCC(F)(F)C(F)(F)F)C(=O)N[C@@H]1C(=O)Nc2ccccc2-c2ccccc21 | 1.83 |
| C=CC(=O)N1CCC[C@@H](n2nc(-c3ccc(Oc4ccccc4)cc3)c3c(N)ncnc32)C1 [ibrutinib] | 1.83 |
| CNC(=O)c1cccc(-c2ccc3c(N4CCOC[C@@H]4C)nc(N4CCOC[C@@H]4C)nc3n2)c1 [vistusertib] | 1.84 |
| CCN(c1cc(C#CCN2CCOCC2)cc(C(=O)NCc2c(C)cc(C)[nH]c2=O)c1C)[C@H]1CC[C@H](N(C)CCOC)CC1 | 2.05 |

same assay, conditions: 12.5 pM; days in culture: 131

| SMILES | CTG-3D luminescence at 96 h |
| --- | --- |
| CC(C)(C(=O)NCC(F)(F)C(F)(F)F)C(=O)N[C@@H]1C(=O)Nc2ccccc2-c2ccccc21 | 2.53 |
| C=CC(=O)N1CCC[C@@H](n2nc(-c3ccc(Oc4ccccc4)cc3)c3c(N)ncnc32)C1 [ibrutinib] | 2.58 |
| CNC(=O)c1cccc(-c2ccc3c(N4CCOC[C@@H]4C)nc(N4CCOC[C@@H]4C)nc3n2)c1 [vistusertib] | 2.64 |
| CCN(c1cc(C#CCN2CCOCC2)cc(C(=O)NCc2c(C)cc(C)[nH]c2=O)c1C)[C@H]1CC[C@H](N(C)CCOC)CC1 | 2.63 |

same assay, conditions: 12.5 pM; days in culture: 152

| SMILES | CTG-3D luminescence at 96 h |
| --- | --- |
| CC(C)(C(=O)NCC(F)(F)C(F)(F)F)C(=O)N[C@@H]1C(=O)Nc2ccccc2-c2ccccc21 | 3.04 |
| C=CC(=O)N1CCC[C@@H](n2nc(-c3ccc(Oc4ccccc4)cc3)c3c(N)ncnc32)C1 [ibrutinib] | 3.76 |
| CNC(=O)c1cccc(-c2ccc3c(N4CCOC[C@@H]4C)nc(N4CCOC[C@@H]4C)nc3n2)c1 [vistusertib] | 2.51 |
| CCN(c1cc(C#CCN2CCOCC2)cc(C(=O)NCc2c(C)cc(C)[nH]c2=O)c1C)[C@H]1CC[C@H](N(C)CCOC)CC1 | 2.5 |

same assay, conditions: 0.00025 µM; days in culture: 110

| SMILES | CTG-3D luminescence at 96 h |
| --- | --- |
| CC(C)(C(=O)NCC(F)(F)C(F)(F)F)C(=O)N[C@@H]1C(=O)Nc2ccccc2-c2ccccc21 | 1.52 |
| C=CC(=O)N1CCC[C@@H](n2nc(-c3ccc(Oc4ccccc4)cc3)c3c(N)ncnc32)C1 [ibrutinib] | 0.982 |
| CNC(=O)c1cccc(-c2ccc3c(N4CCOC[C@@H]4C)nc(N4CCOC[C@@H]4C)nc3n2)c1 [vistusertib] | 1.95 |
| CCN(c1cc(C#CCN2CCOCC2)cc(C(=O)NCc2c(C)cc(C)[nH]c2=O)c1C)[C@H]1CC[C@H](N(C)CCOC)CC1 | 1.49 |

same assay, conditions: 0.00025 µM; days in culture: 131

| SMILES | CTG-3D luminescence at 96 h |
| --- | --- |
| CC(C)(C(=O)NCC(F)(F)C(F)(F)F)C(=O)N[C@@H]1C(=O)Nc2ccccc2-c2ccccc21 | 3.17 |
| C=CC(=O)N1CCC[C@@H](n2nc(-c3ccc(Oc4ccccc4)cc3)c3c(N)ncnc32)C1 [ibrutinib] | 3.79 |
| CNC(=O)c1cccc(-c2ccc3c(N4CCOC[C@@H]4C)nc(N4CCOC[C@@H]4C)nc3n2)c1 [vistusertib] | 4.03 |
| CCN(c1cc(C#CCN2CCOCC2)cc(C(=O)NCc2c(C)cc(C)[nH]c2=O)c1C)[C@H]1CC[C@H](N(C)CCOC)CC1 | 3.96 |

same assay, conditions: 0.00025 µM; days in culture: 152

| SMILES | CTG-3D luminescence at 96 h |
| --- | --- |
| CC(C)(C(=O)NCC(F)(F)C(F)(F)F)C(=O)N[C@@H]1C(=O)Nc2ccccc2-c2ccccc21 | 2.87 |
| C=CC(=O)N1CCC[C@@H](n2nc(-c3ccc(Oc4ccccc4)cc3)c3c(N)ncnc32)C1 [ibrutinib] | 3.16 |
| CNC(=O)c1cccc(-c2ccc3c(N4CCOC[C@@H]4C)nc(N4CCOC[C@@H]4C)nc3n2)c1 [vistusertib] | 2.65 |
| CCN(c1cc(C#CCN2CCOCC2)cc(C(=O)NCc2c(C)cc(C)[nH]c2=O)c1C)[C@H]1CC[C@H](N(C)CCOC)CC1 | 4.04 |

same assay, conditions: 0.005 µM; days in culture: 110

| SMILES | CTG-3D luminescence at 96 h |
| --- | --- |
| CC(C)(C(=O)NCC(F)(F)C(F)(F)F)C(=O)N[C@@H]1C(=O)Nc2ccccc2-c2ccccc21 | 1.54 |
| C=CC(=O)N1CCC[C@@H](n2nc(-c3ccc(Oc4ccccc4)cc3)c3c(N)ncnc32)C1 [ibrutinib] | 1.32 |
| CNC(=O)c1cccc(-c2ccc3c(N4CCOC[C@@H]4C)nc(N4CCOC[C@@H]4C)nc3n2)c1 [vistusertib] | 1.82 |
| CCN(c1cc(C#CCN2CCOCC2)cc(C(=O)NCc2c(C)cc(C)[nH]c2=O)c1C)[C@H]1CC[C@H](N(C)CCOC)CC1 | 1.58 |

same assay, conditions: 0.005 µM; days in culture: 131

| SMILES | CTG-3D luminescence at 96 h |
| --- | --- |
| CC(C)(C(=O)NCC(F)(F)C(F)(F)F)C(=O)N[C@@H]1C(=O)Nc2ccccc2-c2ccccc21 | 3.05 |
| C=CC(=O)N1CCC[C@@H](n2nc(-c3ccc(Oc4ccccc4)cc3)c3c(N)ncnc32)C1 [ibrutinib] | 2.31 |
| CNC(=O)c1cccc(-c2ccc3c(N4CCOC[C@@H]4C)nc(N4CCOC[C@@H]4C)nc3n2)c1 [vistusertib] | 2.46 |
| CCN(c1cc(C#CCN2CCOCC2)cc(C(=O)NCc2c(C)cc(C)[nH]c2=O)c1C)[C@H]1CC[C@H](N(C)CCOC)CC1 | 3.07 |

same assay, conditions: 0.005 µM; days in culture: 152

| SMILES | CTG-3D luminescence at 96 h |
| --- | --- |
| CC(C)(C(=O)NCC(F)(F)C(F)(F)F)C(=O)N[C@@H]1C(=O)Nc2ccccc2-c2ccccc21 | 3.36 |
| C=CC(=O)N1CCC[C@@H](n2nc(-c3ccc(Oc4ccccc4)cc3)c3c(N)ncnc32)C1 [ibrutinib] | 2.83 |
| CNC(=O)c1cccc(-c2ccc3c(N4CCOC[C@@H]4C)nc(N4CCOC[C@@H]4C)nc3n2)c1 [vistusertib] | 3.11 |
| CCN(c1cc(C#CCN2CCOCC2)cc(C(=O)NCc2c(C)cc(C)[nH]c2=O)c1C)[C@H]1CC[C@H](N(C)CCOC)CC1 | 2.16 |

same assay, conditions: 0.1 µM; days in culture: 110

| SMILES | CTG-3D luminescence at 96 h |
| --- | --- |
| CC(C)(C(=O)NCC(F)(F)C(F)(F)F)C(=O)N[C@@H]1C(=O)Nc2ccccc2-c2ccccc21 | 2.23 |
| C=CC(=O)N1CCC[C@@H](n2nc(-c3ccc(Oc4ccccc4)cc3)c3c(N)ncnc32)C1 [ibrutinib] | 2.18 |
| CNC(=O)c1cccc(-c2ccc3c(N4CCOC[C@@H]4C)nc(N4CCOC[C@@H]4C)nc3n2)c1 [vistusertib] | 1.67 |
| CCN(c1cc(C#CCN2CCOCC2)cc(C(=O)NCc2c(C)cc(C)[nH]c2=O)c1C)[C@H]1CC[C@H](N(C)CCOC)CC1 | 2.08 |

same assay, conditions: 0.1 µM; days in culture: 131

| SMILES | CTG-3D luminescence at 96 h |
| --- | --- |
| CC(C)(C(=O)NCC(F)(F)C(F)(F)F)C(=O)N[C@@H]1C(=O)Nc2ccccc2-c2ccccc21 | 3.09 |
| C=CC(=O)N1CCC[C@@H](n2nc(-c3ccc(Oc4ccccc4)cc3)c3c(N)ncnc32)C1 [ibrutinib] | 2.19 |
| CNC(=O)c1cccc(-c2ccc3c(N4CCOC[C@@H]4C)nc(N4CCOC[C@@H]4C)nc3n2)c1 [vistusertib] | 2.64 |
| CCN(c1cc(C#CCN2CCOCC2)cc(C(=O)NCc2c(C)cc(C)[nH]c2=O)c1C)[C@H]1CC[C@H](N(C)CCOC)CC1 | 3.21 |

same assay, conditions: 0.1 µM; days in culture: 152

| SMILES | CTG-3D luminescence at 96 h |
| --- | --- |
| CC(C)(C(=O)NCC(F)(F)C(F)(F)F)C(=O)N[C@@H]1C(=O)Nc2ccccc2-c2ccccc21 | 1.92 |
| C=CC(=O)N1CCC[C@@H](n2nc(-c3ccc(Oc4ccccc4)cc3)c3c(N)ncnc32)C1 [ibrutinib] | 2.13 |
| CNC(=O)c1cccc(-c2ccc3c(N4CCOC[C@@H]4C)nc(N4CCOC[C@@H]4C)nc3n2)c1 [vistusertib] | 1.64 |
| CCN(c1cc(C#CCN2CCOCC2)cc(C(=O)NCc2c(C)cc(C)[nH]c2=O)c1C)[C@H]1CC[C@H](N(C)CCOC)CC1 | 1.89 |

same assay, conditions: 1 µM; days in culture: 110

| SMILES | CTG-3D luminescence at 96 h |
| --- | --- |
| CC(C)(C(=O)NCC(F)(F)C(F)(F)F)C(=O)N[C@@H]1C(=O)Nc2ccccc2-c2ccccc21 | 1.47 |
| C=CC(=O)N1CCC[C@@H](n2nc(-c3ccc(Oc4ccccc4)cc3)c3c(N)ncnc32)C1 [ibrutinib] | 1.21 |
| CNC(=O)c1cccc(-c2ccc3c(N4CCOC[C@@H]4C)nc(N4CCOC[C@@H]4C)nc3n2)c1 [vistusertib] | 0.591 |
| CCN(c1cc(C#CCN2CCOCC2)cc(C(=O)NCc2c(C)cc(C)[nH]c2=O)c1C)[C@H]1CC[C@H](N(C)CCOC)CC1 | 1.81 |

same assay, conditions: 1 µM; days in culture: 131

| SMILES | CTG-3D luminescence at 96 h |
| --- | --- |
| CC(C)(C(=O)NCC(F)(F)C(F)(F)F)C(=O)N[C@@H]1C(=O)Nc2ccccc2-c2ccccc21 | 2.31 |
| C=CC(=O)N1CCC[C@@H](n2nc(-c3ccc(Oc4ccccc4)cc3)c3c(N)ncnc32)C1 [ibrutinib] | 1.24 |
| CNC(=O)c1cccc(-c2ccc3c(N4CCOC[C@@H]4C)nc(N4CCOC[C@@H]4C)nc3n2)c1 [vistusertib] | 0.938 |
| CCN(c1cc(C#CCN2CCOCC2)cc(C(=O)NCc2c(C)cc(C)[nH]c2=O)c1C)[C@H]1CC[C@H](N(C)CCOC)CC1 | 1.98 |

same assay, conditions: 1 µM; days in culture: 152

| SMILES | CTG-3D luminescence at 96 h |
| --- | --- |
| CC(C)(C(=O)NCC(F)(F)C(F)(F)F)C(=O)N[C@@H]1C(=O)Nc2ccccc2-c2ccccc21 | 2.19 |
| C=CC(=O)N1CCC[C@@H](n2nc(-c3ccc(Oc4ccccc4)cc3)c3c(N)ncnc32)C1 [ibrutinib] | 1.54 |
| CNC(=O)c1cccc(-c2ccc3c(N4CCOC[C@@H]4C)nc(N4CCOC[C@@H]4C)nc3n2)c1 [vistusertib] | 0.846 |
| CCN(c1cc(C#CCN2CCOCC2)cc(C(=O)NCc2c(C)cc(C)[nH]c2=O)c1C)[C@H]1CC[C@H](N(C)CCOC)CC1 | 2.77 |

same assay, conditions: 10 µM; days in culture: 110

| SMILES | CTG-3D luminescence at 96 h |
| --- | --- |
| CC(C)(C(=O)NCC(F)(F)C(F)(F)F)C(=O)N[C@@H]1C(=O)Nc2ccccc2-c2ccccc21 | 2.09 |
| C=CC(=O)N1CCC[C@@H](n2nc(-c3ccc(Oc4ccccc4)cc3)c3c(N)ncnc32)C1 [ibrutinib] | 1.26 |
| CNC(=O)c1cccc(-c2ccc3c(N4CCOC[C@@H]4C)nc(N4CCOC[C@@H]4C)nc3n2)c1 [vistusertib] | 0.882 |
| CCN(c1cc(C#CCN2CCOCC2)cc(C(=O)NCc2c(C)cc(C)[nH]c2=O)c1C)[C@H]1CC[C@H](N(C)CCOC)CC1 | 2.75 |
